Measured values as given in US20060083680A1, “Diphenyl ether derivatives and their use for imaging serotonin transporters” (The Trustees of the University of Pennsylvania, priority 2004, published 2006).
Values joined by “and” are separate entries in the source; they are usually repeats but may differ in a detail not shown here. Equal entries are not always repeated.

Assay: Biodistribution in rats after iv injection (organs)
Format: in vivo
Settings: for Biodistribution Blood / Biodistribution Brain / Biodistribution Heart / Biodistribution Kidney / Biodistribution Liver / Biodistribution Lung / Biodistribution Muscle / Biodistribution Skin / Biodistribution Spleen / Biodistribution Thyroid: iv
Protocol: Biodistribution in rats: Three rats per group were used for each biodistribution study. While under ether anesthesia, 0.2 mL of a saline solution containing 10 μCi of radioactive tracer was injected into the femoral vein. The rats were sacrificed at the time indicated by cardiac excision while under ether anesthesia. Organs of interest were removed and weighed, and the radioactivity was counted. The percent dose per organ was calculated by a comparison of the tissue counts to counts of 1% of the initial dose (100 times diluted aliquots of the injected material) measured at the same time.

With `CN(C)Cc1ccccc1Oc1ccc([125I])cc1N` [[^125I]4, [^125I][^123I]2-(2-(Dimethylaminomethyl)phenoxy)-5-iodophenylamine] the brain uptake (2 min post-injection) was 1.77 % dose and 1.77±0.07 % dose, the “Biodistribution Blood” value (2 min) was 5.75 ± 0.54 % dose/organ and the “Biodistribution Brain” value (2 min) was 1.77 ± 0.07 % dose/organ. The “Biodistribution Heart” value (2 min) was 1.51 ± 0.13 % dose/organ, the “Biodistribution Kidney” value (2 min) was 4.27 ± 0.90 % dose/organ and the “Biodistribution Liver” value (2 min) was 5.71 ± 0.88 % dose/organ. The “Biodistribution Lung” value (2 min) was 17.2 ± 2.32 % dose/organ, the “Biodistribution Muscle” value (2 min) was 25.9 ± 4.82 % dose/organ and the “Biodistribution Skin” value (2 min) was 4.45 ± 0.52 % dose/organ. For the same compound, the “Biodistribution Spleen” value (2 min) was 0.44 ± 0.08 % dose/organ, the “Biodistribution Thyroid” value (2 min) was 0.10 ± 0.02 % dose/organ and the “Biodistribution Blood” value (30 min) was 4.56 ± 0.20 % dose/organ. The “Biodistribution Brain” value (30 min) was 2.12 ± 0.15 % dose/organ, the “Biodistribution Heart” value (30 min) was 0.32 ± 0.04 % dose/organ and the “Biodistribution Kidney” value (30 min) was 2.67 ± 0.48 % dose/organ. For the same compound, the “Biodistribution Liver” value (30 min) was 7.10 ± 0.66 % dose/organ, the “Biodistribution Lung” value (30 min) was 3.56 ± 0.96 % dose/organ and the “Biodistribution Muscle” value (30 min) was 18.1 ± 0.55 % dose/organ. For the same compound, the “Biodistribution Skin” value (30 min) was 11.3 ± 0.78 % dose/organ, the “Biodistribution Spleen” value (30 min) was 0.84 ± 0.05 % dose/organ and the “Biodistribution Thyroid” value (30 min) was 0.15 ± 0.04 % dose/organ. For the same compound, the “Biodistribution Blood” value (60 min) was 3.89 ± 0.28 % dose/organ, the “Biodistribution Brain” value (60 min) was 1.74 ± 0.08 % dose/organ and the “Biodistribution Heart” value (60 min) was 0.20 ± 0.01 % dose/organ. The “Biodistribution Kidney” value (60 min) was 1.67 ± 0.21 % dose/organ, the “Biodistribution Liver” value (60 min) was 5.79 ± 0.70 % dose/organ and the “Biodistribution Lung” value (60 min) was 1.79 ± 0.06 % dose/organ. For the same compound, the “Biodistribution Muscle” value (60 min) was 12.9 ± 0.84 % dose/organ, the “Biodistribution Skin” value (60 min) was 13.9 ± 1.00 % dose/organ and the “Biodistribution Spleen” value (60 min) was 0.47 ± 0.02 % dose/organ. The “Biodistribution Thyroid” value (60 min) was 0.41 ± 0.11 % dose/organ, the “Biodistribution Blood” value (120 min) was 3.15 ± 0.44 % dose/organ and the “Biodistribution Brain” value (120 min) was 1.08 ± 0.06 % dose/organ. The “Biodistribution Heart” value (120 min) was 0.13 ± 0.01 % dose/organ, the “Biodistribution Kidney” value (120 min) was 1.24 ± 0.15 % dose/organ and the “Biodistribution Liver” value (120 min) was 4.90 ± 0.38 % dose/organ. The “Biodistribution Lung” value (120 min) was 0.88 ± 0.04 % dose/organ, the “Biodistribution Muscle” value (120 min) was 9.18 ± 0.65 % dose/organ and the “Biodistribution Skin” value (120 min) was 12.5 ± 2.14 % dose/organ. For the same compound, the “Biodistribution Spleen” value (120 min) was 0.27 ± 0.01 % dose/organ, the “Biodistribution Thyroid” value (120 min) was 0.96 ± 0.06 % dose/organ and the “Biodistribution Blood” value (240 min) was 3.12 ± 0.32 % dose/organ. The “Biodistribution Brain” value (240 min) was 0.33 ± 0.02 % dose/organ, the “Biodistribution Heart” value (240 min) was 0.08 ± 0.02 % dose/organ and the “Biodistribution Kidney” value (240 min) was 0.61 ± 0.09 % dose/organ. The “Biodistribution Liver” value (240 min) was 3.52 ± 0.20 % dose/organ, the “Biodistribution Lung” value (240 min) was 0.37 ± 0.03 % dose/organ and the “Biodistribution Muscle” value (240 min) was 6.27 ± 0.06 % dose/organ. For the same compound, the “Biodistribution Skin” value (240 min) was 12.6 ± 0.48 % dose/organ, the “Biodistribution Spleen” value (240 min) was 0.13 ± 0.02 % dose/organ and the “Biodistribution Thyroid” value (240 min) was 2.34 ± 1.16 % dose/organ. For the same compound, the “Biodistribution Blood” value (6 hrs) was 3.29 ± 0.27 % dose/organ, the “Biodistribution Brain” value (6 hrs) was 0.11 ± 0.01 % dose/organ and the “Biodistribution Heart” value (6 hrs) was 0.08 ± 0.00 % dose/organ. For the same compound, the “Biodistribution Kidney” value (6 hrs) was 0.55 ± 0.07 % dose/organ, the “Biodistribution Liver” value (6 hrs) was 3.59 ± 0.23 % dose/organ and the “Biodistribution Lung” value (6 hrs) was 0.25 ± 0.01 % dose/organ. The “Biodistribution Muscle” value (6 hrs) was 5.01 ± 0.42 % dose/organ, the “Biodistribution Skin” value (6 hrs) was 15.5 ± 1.50 % dose/organ and the “Biodistribution Spleen” value (6 hrs) was 0.11 ± 0.01 % dose/organ. The “Biodistribution Thyroid” value (6 hrs) was 2.68 ± 0.66 % dose/organ, the “Biodistribution Blood” value (11 hrs) was 2.52 ± 0.47 % dose/organ and the “Biodistribution Brain” value (11 hrs) was 0.02 ± 0.00 % dose/organ. The “Biodistribution Heart” value (11 hrs) was 0.06 ± 0.00 % dose/organ, the “Biodistribution Kidney” value (11 hrs) was 0.40 ± 0.10 % dose/organ and the “Biodistribution Liver” value (11 hrs) was 2.64 ± 0.19 % dose/organ. The “Biodistribution Lung” value (11 hrs) was 0.16 ± 0.00 % dose/organ, the “Biodistribution Muscle” value (11 hrs) was 4.01 ± 0.85 % dose/organ and the “Biodistribution Skin” value (11 hrs) was 10.9 ± 4.62 % dose/organ. The “Biodistribution Spleen” value (11 hrs) was 0.09 ± 0.01 % dose/organ, the “Biodistribution Thyroid” value (11 hrs) was 5.15 ± 1.49 % dose/organ and the “Biodistribution Blood” value (24 hrs) was 0.70 ± 0.06 % dose/organ. For the same compound, the “Biodistribution Brain” value (24 hrs) was 0.01 ± 0.00 % dose/organ, the “Biodistribution Heart” value (24 hrs) was 0.02 ± 0.00 % dose/organ and the “Biodistribution Kidney” value (24 hrs) was 0.17 ± 0.02 % dose/organ. For the same compound, the “Biodistribution Liver” value (24 hrs) was 1.83 ± 0.07 % dose/organ.
